Assays:
[1] = test system: A2780 ovarian carcinoma cell line; assay: MTS antiproliferative assay, A2780; format: cell-based, human; details: 48 h incubation, MTS; read-out: Relative IC50, A2780
Protocol: (§3) Normal dermal human fibroblasts, colorectal carcinoma cell line HCT116 and ovarian carcinoma cell line A2780 were acquired from ATCC (Manassas, VA, USA). […] Fibroblasts and HCT116 cells were cultured in Dulbecco’s modified Eagle medium (DMEM, Thermo Fisher Scientific) and A2780 cell line was cultured on Roswell Park Memorial institute 1640 (RPMI-1640, Thermo Fisher Scientific). Both media were supplemented with 10% (v/v) fetal bovine serum (FBS, Thermo Fisher Scientific) and a mixture of 100 U/mL penicillin and 100 mg/mL streptomycin. The supplemented media are referred to from this point on as DMEM or RPMI for simplicity. […] All experiments underwent at 37 °C, 5% (v/v) CO2 and 99% (v/v) humidity in the dark.
(§4) Cells were seeded in a 96-well plate in a density of 7500 cells/well, and after 24 h was submitted to a concentration range between 0.1–50 µM of complexes JHOR10 and JHOR11. DMSO with a 0.1% (v/v) concentration was used as vector control and cisplatin was used as positive control in all replicates. After 48 h incubation, cellular viability was inferred with the Cell Titer 96® Aqueous One solution cell proliferation assay (Promega, Madison, WI, USA) according to the manufacturer’s instructions and procedures previously described [18, 40]. The absorbance of the produced Formazan was quantified with a Tecan microplate reader, Infinite M200 (Tecan, Mannedorf, Switzerland) and the analysis of the dose–response curves to determine the relative IC50 was performed with GraphPad Prism 8.2.1 software (GraphPad Software, La Jolla, CA, USA).

[2] = test system: HCT116 colorectal carcinoma cell line; assay: MTS antiproliferative assay, HCT116; format: cell-based, human; details: 48 h incubation, MTS; read-out: Relative IC50, HCT116
Protocol: as §3, §4

A2780 cells = assay: Cell cycle analysis (PI staining); format: cell-based, human; details: A2780 synchronized with thymidine; IC50 of JHOR11 or 0.1 µM doxorubicin; 5-32 h, relative to DMSO
Protocol: To understand if the complex also presents a cytostatic effect, the cell cycle of A2780 cells was analyzed by DNA staining with PI, after double synchronization with thymidine at the S phase.
The cell cycle analysis was performed by DNA staining with PI according to procedures previously described with few modifications. A2780 cells were seeded in 6-well plates in a cell density of 4 × 10^5 cells/well and the cell cycle was synchronized in the S-phase by double blocking with 2 mM thymidine. […] After 5 h, 9 h, 24 h or 32 h, cells were detached, fixed with 80% (v/v) ethanol, incubated with 50 mg/mL RNase A (NZYtech, Lisbon, Portugal) and stained with […] PI (Thermo Fisher Scientific). The fluorescence of each sample was analyzed in an Attune acoustic focusing cytometer and respective software (Thermo Fisher Scientific).

[3] = test system: doxorubicin-resistant HCT116 (HCT116-Dox); details: read-out: Relative IC50, HCT116-Dox; 48 h incubation, MTS
Protocol: (§1) The cytotoxic potential of the complexes was evaluated by assessing their viability using the 3-(4,5-dimethylthiazol-2-yl)-5-(3-carboxymethoxyphenyl)-2-(4-sulfophenyl)-2H tetrazolium, inner salt (MTS) colorimetric assay in three tumor cell lines—ovarian carcinoma, A2780, colorectal carcinoma, HCT116, and colorectal carcinoma resistant to doxorubicin, HCT116-Dox and in normal human primary dermal fibroblasts (Figure 1 and Figure S7).
(§2) Normal dermal human fibroblasts, colorectal carcinoma cell line HCT116 and ovarian carcinoma cell line A2780 were acquired from ATCC (Manassas, VA, USA). HCT116 cell lines resistant to doxorubicin (HCT116-Dox) were derived from the HCT116 cell line, as previously described. Fibroblasts and HCT116 cells were cultured in Dulbecco’s modified Eagle medium (DMEM, Thermo Fisher Scientific) and A2780 cell line was cultured on Roswell Park Memorial institute 1640 (RPMI-1640, Thermo Fisher Scientific). Both media were supplemented with 10% (v/v) fetal bovine serum (FBS, Thermo Fisher Scientific) and a mixture of 100 U/mL penicillin and […] streptomycin. The supplemented media are referred to from this point on as DMEM or RPMI for simplicity.

[4] = test system: normal human dermal fibroblasts; details: read-out: Relative IC50, Fibroblasts; 48 h incubation, MTS
Protocol: as §1, §2

[5] = Stability in DMSO-d6-D2O solution by 1H NMR; format: physicochemical; details: DMSO-d6-D2O 3:7 (v/v), 110 mM chloride
Protocol: To evaluate the stability of complexes in a cell culture medium, powdered complexes were first solubilized in DMSO and then immediately in DMEM, in order to guarantee that no more than 0.1% (v/v) DMSO was present in the medium. […] In addition, the stability of the complexes in solution was investigated by ^1H NMR spectroscopy. The ruthenium complexes were dissolved in DMSO-d6-D2O, in a 3:7 ratio (v/v) with a 110 mM chloride concentration, and the ^1H NMR spectra was recorded immediately and after 48 h. […] This observation is in agreement with the M–Cl aquation processes described for several metallic compounds, such as cisplatin [23]. After 48 h, the ^1H NMR spectrum of JHOR10 was unchanged.
The stability of complexes was evaluated in DMEM (Dulbecco’s modified Eagle’s medium). Powdered complexes JHOR10 and JHOR11 were solubilized in DMSO and then immediately diluted in DMEM without phenol red (Thermo Fisher Scientific, Waltham, MA, USA) to a final concentration of 100 µM, assuring that the final concentration of DMSO was not higher than 0.1% (v/v). The UV-visible spectrum was measured after an incubation at 37 °C for 24 or 48 h (DMEM) in a wavelength range between 260 and 800 nm, using a quartz cuvette with 1 cm path length. A total of 2 mg of each compound was dissolved in DMSOd6-D2O 3:7 (v/v) 110 mM chloride concentration (NaCl), and the ^1H NMR were recorded at 0 h and 48 h on a Bruker Avance III 400 MHz.

zebrafish embryos = assay: In vivo toxicity assessment using zebrafish embryos; details: zebrafish embryos exposed from 72 hpf, 96 h
Protocol: The toxicity of the JHOR10 and JHOR11 compounds was assayed in zebrafish embryos. There was a NOEC (No Observed Effect Concentration) in the case of JHOR11 of 80 µM (Table 2). The NOEC is the concentration used for the xenotransplantation experiments in order not to affect the normal development of the embryos and being able, in parallel, to assay the effect of the compound over the injected cells. Apart from that, the mortality assayed in the toxicity assays supports the concentration obtained in the NOEC, with a low mortality of the embryos when they are incubated with JHOR11 (Figure 13 and Figure 14).
Wild-type zebrafish were housed in 30 L tanks within a water recirculation system under controlled physicochemical conditions: pH 7–7.5, temperature 26 ± 2 °C, conductivity 600 µS/cm and light/dark photoperiod of 14/10 h. The adult fish were fed Gemma Micro 300 (Skretting) twice a day. Fertilized eggs were collected after natural spawning and stored in Petri dishes for 48 h until being injected, or 72 h until being exposed to different concentrations of ruthenium compounds.
At 72 h post-fertilization (hpf), the embryos were exposed to increasing concentrations of two ruthenium compounds to determine toxicological estimates: LC50 with no observed effect concentration (NOEC) and lowest observed effect concentration (LOEC). The acute toxicity assessment of the compounds was performed following the standards of the OECD Test Guideline Program.
The embryos were individually transferred to 96-well plates containing 100 µL of each desired concentration. The plates were then placed in an incubator with a temperature of 26 °C and a photoperiod of 14 h of light and 10 h of darkness. The duration of the experiment was 96 h, and observations were made every 24 h recording the four lethal effects indicated by the OECD: embryo coagulation, absence of somite formation, absence of separation of the yolk tail and absence of heartbeat. All compounds were dissolved with dimethylsulfoxide (DMSO) with a final concentration of 1%. In each test, seven concentrations were analyzed for each compound, these being: JHOR10 (10, 20, 30, 40, 50, 55, 60 µM) and JHOR11 (50, 80, 100, 140, 200, 300, 400 µM).
For the evaluation of toxicity, the mortality data were analyzed by probit analysis with the ToxRat software (ToxRat Solutions. 2003. ToxRat®. Software for the statistical analysis of biotests. Alsdorf, Germany).

`N.N.[Cl][Pt][Cl]` [Cisplatin, reference compound] showed an IC50 [1] of 1.9 ± 0.2 µM and an IC50 [2] of 15.6 ± 5.3 µM.
In the case of `COc1cccc2c1C(=O)c1c(O)c3c(c(O)c1C2=O)C[C@@](O)(C(=O)CO)C[C@@H]3O[C@H]1C[C@H](N)[C@H](O)[C@H](C)O1` [doxorubicin, reference compound], the cell cycle effect (A2780 cells) is reported as “cell cycle arrest at G2/M phase”.
`Cc1ccc(C(C)C)cc1.O=C1C(=O)c2cccnc2-c2ncccc21.O=S(=O)([O-])C(F)(F)F.[Cl][Ru+]` [JHOR10, [Ru{p-C6H4(Me)(iPr)}{(Dione)Cl][CF3SO3]] showed an IC50 [1] of 5.3 ± 0.3 µM, an IC50 [2] of 25.7 ± 1.3 µM and an IC50 [3] greater than 50 µM. For the same compound, the IC50 [4] was greater than 50 µM, the “stability in solution by 1H NMR after 48 h” value ([5]; 48 h) was “unchanged” and the “stability in solution by 1H NMR at t = 0 h” value ([5]; t = 0 h) was “new sets of resonances appeared”. The LC50 (zebrafish embryos) was 29.8 µM, the “LOEC (Lowest Observed Effect Concentration)” value (zebrafish embryos) was 20.00 µM and the “NOEC (No Observed Effect Concentration)” value (zebrafish embryos) was 10.00 µM.

Reference: article PMC9656482, “In Vitro and In Vivo Biological Activity of Ruthenium 1,10-Phenanthroline-5,6-dione Arene Complexes” (International Journal of Molecular Sciences, 2022)
